The values that follow come from patent publication US20040072146A1, “Mechanism of mitochondrial membrane permeabilization by HIV-1 Vpr, mimetics of Vpr and methods of screening active molecules having the ability to alter and/or prevent and/or mimic the interaction of Vpr with ANT” (priority 2000, published 2004).

The test system of experiment [1] is purified mitochondria. The experiment is described as follows: Respirometry of purified mitochondria, respiratory control. It counts as biochemical. The conditions noted are these: 1 μM peptide, 10 min. How it is done: A. Oxygen consumption curves after addition of the indicated agents. Trace a: control mitochondria (no pretreatment). Trace b: mitochondria pretreated for 10 min with 1 μM Vpr52-96. Numbers along the traces are nmol of O2 consumed min^−1 mg^31 1 protein.
B. Respiratory control (RC) values calculated by dividing oxygen consumption in the presence of CCCP by that measured with oligomycin (determined as in A), 10 min after addition of 1 μM of Vpr-derived peptides (mean values of 3 determinations).

Experiment [2] concerns purified mitochondria. Kind of experiment: Inner versus outer mitochondrial membrane permeabilization (NADH oxidation, cytochrome c oxidation). Type of experiment: biochemical. How it is done:
A. Respirometry performed after addition of NADH and Vpr52-96 (1 μM). Numbers along the traces are nmol of O2 consumed min^−1 mg^−1 protein.
B. Kinetics of Vpr52-96 induced inner membrane permeabilization to NADH and outer membrane permeabilization to reduced cytochrome c. Oxygen consumption was determined in the presence of 2 mM NADH (full squares) as in A (traces C-D) and cytochrome c (15 μM) oxidation (open circles) was spectrofluorometrically measured, as described Rustin et al., 1994). The 100% value of cytochrome c oxidation was determined by addition of 2.5 mM laurylmaltoside.
Oxygen consumption of purified mitochondria was measured as in FIG. 5 after addition of succinate+CCCP or NADH, as indicated.

The test system of experiment [3] is purified mitochondria. Kind of experiment: FITC-Vpr52-96 binding to purified mitochondria. As to conditions: 0.5 μM FITC-Vpr52-96. How it is done:
Mitochondria were left unstained (insert in Co.) or exposed to the ΔΨm-insensitive mitochondrial dye MitoTracker® Green (75 nM), alone (MTG) or with 0.5 μM of FITC-Vpr52-96; green fluorescence), in combination with the ΔΨm-sensitive mitochondrial dye MitoTracker® Red (CMXRos; red Fluorescence) followed by cytofluorometric two-color analysis. Numbers indicate the percentage of mitochondria in each quadrant.
Mitochondria were incubated with the indicated inhibitors, and then exposed for 30 min at RT with 5 μM biotinylated Vpr52-96. Mitochondria were lysed either after incubation with biotinylated Vpr52-96 (upper panel) or lysed before (lower panel) with Tris/HCl as described in materials and methods. Biotinylated Vpr52-96 complexed with its mitochondrial ligands was retained on avidin-agarose and subjected to immunoblot detection of ANT.

For another experiment, the system named is isolated mitochondria. The experiment is described as follows: Electron microscopy of isolated mitochondria (matrix swelling). Type of experiment: biochemical. As to conditions: 3 μM Vpr52-96, 5 or 15 min. The source says:
C. Ultrastructural effects of Vpr on isolated mitochondria.

Experiment [4] addresses T1, ANT (Rattus norvegicus, UniProt Q05962).
T1 construct: from tissue
Type of experiment: binding. The conditions noted are these: purified detergent-solubilized ANT. The source says: A Plasma surface resonance sensorgrams of the interaction of ANT with Vpr52-96, Vpr52-96[R73A, 80A] or an irrelevant control (Co).
B. Langmuir isotherm determined at different concentrations of ANT on sensorgrams corrected by substraction of the blank (sensorgrams obtained with Vpr52-96[R73A, 80A]).

For a further experiment, the target named is T2, ANT-proteoliposomes (Rattus norvegicus, UniProt Q05962).
T2 construct: ANT is purified from rat heart and reconstituted in liposomes; from tissue; host or cells: rat heart (ANT)
T2 sequence (Q05962 1-298): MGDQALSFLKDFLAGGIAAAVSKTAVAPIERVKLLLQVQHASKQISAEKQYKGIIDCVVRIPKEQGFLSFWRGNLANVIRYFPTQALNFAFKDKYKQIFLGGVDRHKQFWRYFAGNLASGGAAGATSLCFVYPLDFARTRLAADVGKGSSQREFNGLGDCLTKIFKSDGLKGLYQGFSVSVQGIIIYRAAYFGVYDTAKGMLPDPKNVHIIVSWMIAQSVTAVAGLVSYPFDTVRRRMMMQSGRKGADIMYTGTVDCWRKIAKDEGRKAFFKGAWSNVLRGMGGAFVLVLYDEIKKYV
The experiment is described as follows: FITC-labeled Vpr52-96 binding onto ANT-liposomes and plain liposomes. How it is done: A. Dose-response curve of FITC-labeled Vpr52-96 binding onto ANT-liposomes and plain liposomes.
B. Binding of FITC-Vpr52-96 (2 μM) to plain liposomes, ANT-proteoliposomes, in the presence or absence of BA (50 μM).

Experiment [5] deals with T1, ANT. The conditions noted are these: surface plasmon resonance, Jacotot et al. 2000; cited from earlier work. (In general: In SPR one partner is held on a chip, and binding of the other changes the refractive index at the surface.)
The target in experiment [6] is T1, ANT. Kind of experiment: Single channel recordings in planar lipid bilayers. It counts as biochemical. How it is done: FIG. 3 presents electrophysiological properties of Vpr52-96 and ANT in planar lipid bilayers. Current fluctuations of Vpr52-96 (80 nM, +150 mV), Vpr52-96(0.4 nM, +100 mV), ANT (1 nM, +110 mV) and Vpr52-96+ANT (0.4:1 nM, +115 mV) and associated histograms (right) of conductance levels are shown.
Current fluctuations of Vpr52-96 (80 nM, +150 mV), Vpr52-96 (0.4 nM, +100 mV), ANT (1 nM, +110 mV) and Vpr52-96+ANT (0.4:1 nM, 115 mV) after incorporation into synthetic membranes. Single channel recordings were performed using the “Tip-Dip” technique. The recordings shown are representative for at least three independent determinations.
B. Statistical analysis of conductances obtained in A. Results were expressed as current distributions at different voltages. Conductances (γ; in picosiemens, pS) are calculated by division of current by voltage.

On to `CC[C@H](C)[C@H](NC(=O)[C@H](C)NC(=O)[C@H](CCC(=O)O)NC(=O)[C@@H](NC(=O)CNC(=O)[C@H](C)NC(=O)[C@H](Cc1c[nH]c2ccccc12)NC(=O)[C@@H](NC(=O)[C@@H](N)CC(=O)O)[C@@H](C)O)C(C)C)C(=O)N[C@H](C(=O)N[C@@H](CCCNC(=N)N)C(=O)N[C@H](C(=O)N[C@@H](CC(C)C)C(=O)N[C@@H](CCC(N)=O)C(=O)N[C@@H](CCC(N)=O)C(=O)N[C@@H](CC(C)C)C(=O)N[C@@H](CC(C)C)C(=O)N[C@@H](Cc1ccccc1)C(=O)N[C@H](C(=O)N[C@@H](Cc1c[nH]cn1)C(=O)N[C@@H](Cc1ccccc1)C(=O)N[C@@H](CCCNC(=N)N)C(=O)N[C@H](C(=O)NCC(=O)N[C@@H](CS)C(=O)N[C@@H](CCCNC(=N)N)C(=O)N[C@@H](Cc1c[nH]cn1)C(=O)N[C@@H](CO)C(=O)N[C@@H](CCCNC(=N)N)C(=O)N[C@H](C(=O)NCC(=O)N[C@H](C(=O)N[C@H](C(=O)N[C@@H](CCCNC(=N)N)C(=O)N[C@@H](CCC(N)=O)C(=O)N[C@@H](CCCNC(=N)N)C(=O)N[C@@H](CCCNC(=N)N)C(=O)N[C@@H](C)C(=O)N[C@@H](CCCNC(=N)N)C(=O)N[C@@H](CC(N)=O)C(=O)NCC(=O)N[C@@H](C)C(=O)N[C@@H](CO)C(=O)N[C@@H](CCCNC(=N)N)C(=O)N[C@@H](CO)C(=O)O)[C@@H](C)O)C(C)C)[C@@H](C)CC)[C@@H](C)CC)[C@@H](C)CC)[C@@H](C)CC)[C@@H](C)CC` [Vpr52-96], for which the “effect on respiratory control (RC)” value with purified mitochondria [1] was “exhibited a gross deficiency in respiratory control (RC)”. Moreover, in the experiment on purified mitochondria [1] (5.3 in control mitochondria), the “respiratory control (RC) value” worked out at 1.1. Further, in the experiment with purified mitochondria [2], the “order of inner and outer MMP” value was “causes inner MMP well before OM becomes permeable to exogenous cytochrome c”. Besides, in the experiment with purified mitochondria [2] (Vpr52-96 1 μM, 2 mM NADH), the “time to maximal NADH oxidation” value was 10 min. Besides, the “Vpr52-96 binding to mitochondria relative to ΔΨm loss” value with purified mitochondria [3] was “binds mitochondria before inducing ΔΨm loss”. For the same compound, the “ultrastructural effect on mitochondria” value with isolated mitochondria is “exhibited matrix swelling before OM rupture became apparent”. Also, the “binding of ANT to immobilized peptide (sensorgram)” value at ANT [4] was “exhibits an increase of binding as a function of time and a positive signal at the start of the dissociation phase”. The “Vpr52-96 binding to membranes, ANT liposomes versus protein-free liposomes” value on ANT-proteoliposomes is recorded as “greatly facilitated in liposomes in which ANT has been reconstituted as compared to protein-free liposomes”. Besides, the “affinity of Vpr C-terminus for purified ANT” value on ANT [5] is “high affinity in the nanomolar range”. Also, at ANT [6] (Vpr52-96+ANT 0.4:1 nM), the “conductance of channels formed by ANT and Vpr52-96” value worked out at 190±2 pS. Moreover, the “mean conductance of Vpr52-96-ANT channels without any further addition” value on ANT [6] (as restated in Example 4) worked out at 190±2. In addition, at ANT [6] (high doses (80 nM), no ANT), the “conductance of channels formed by Vpr52-96 alone” value was 55±2 pS. Further, the “channel formation in planar lipid bilayers” value at ANT [6] (low doses (<1 nM)) is listed as “incapable of forming channels, unless ANT was present”.
